From patent publication US20230079732A1, “OPAL PEPTIDE ADMINISTRATION” (priority 2020, published 2023) come the findings set out here.

In series [1] the test system is blood glucose. As to the kind of experiment: Glucose tolerance test with an oral dose of conjugate (FIG. 4). The series is classed as in vivo, rodents. As to conditions: for effect on blood glucose after glucose gavage: 30 minutes before glucose gavage, monitored 90 minutes (FIG. 4 legend). Here is the method:
Each subject was then monitored for blood glucose over the 90 minutes after receiving the glucose gavage.
A population of 30 healthy rodents without diabetic symptoms were obtained, and were divided into six treatment groups: one group of 5 rodents received 2 IU/kg of insulin by intraperitoneal injection 30 minutes prior to a glucose gavage; one group received 100 IU/kg of insulin by via oral gavage 30 minutes prior to a glucose gavage; […] gavage; one group of 5 […] gavage and one group of five rodents were given only a glucose gavage. Blood glucose of all rodents were then monitored over 90 minutes post-glucose gavage.

Series [2] concerns blood glucose. The experiment in a line: Oral glucose tolerance test (oGTT), SC-INS versus QD-INS (FIG. 5). The series is classed as in vivo, C57BL/6 mice. To be noted: oral gavage 20 IU/kg, 30 minutes before oGTT.
Description: A further study was carried out on healthy rodents without diabetic symptoms comparing a saline subcutaneous injection (control), a subcutaneous injection of insulin (SC-INS, 2 IU/kg), or an oral gavage of oral-insulin (QD-INS, 20 IU/kg) 30 minutes before a glucose tolerance test (oGTT).
Series [3] relates to blood glucose. The experiment in a line: Insulin tolerance test in diabetic NOD/Scid mouse model (FIG. 8). The class given is in vivo, NOD/Scid mice. To be noted: oral gavage versus subcutaneous injection. Here is the method:
NOD mice with a blood glucose below […] were treated with SC-INS (1 IU/kg) or QD-INS (25 IU/kg) at time 0, mice with a blood glucose above […] were treated with 4 IU/kg SC-INS or 100 IU/kg QD-INS. Blood glucose samples were collected at −15, 0, 15, 30, 45 and 60 mins. […] Data points showing the mean±SD.
Blood glucose was measured used a handheld Glucometer using Accu-check proforma strips. Blood was collected by tail vein sampling following a tail snip. Blood glucose was collected at −15, 0, 15, 30, 45 and 60 mins after a subcutaneous (SC) insulin injection (0.1, 1 or 2 IU/kg) or a gavage of QD-insulin conjugates (10, 20, 30, 40, 50, 75 or 100 IU/kg).

The conditions of series [4]: in vivo, po.
Description: (§1) Conjugates of radiolabeled insulin and quantum dots were produced in a method as described above, albeit with radiolabeled insulin used instead of native insulin. Two groups of healthy rodents were then orally administered either a dose of conjugates or equivalent radiolabeled unbound insulin. The distribution of radioactivity was then monitored 30 minutes after administration.
Series [5] is described as follows: Biodistribution of ^14C radiolabelled insulin (FIG. 6). As to conditions: for main location of radiolabelled insulin: after 30 minutes, mice fasted 4 hours.
Description: Tissue samples and blood plasma were prepared for radiolabel component analysis according to standard methods. Data is presented in this figure is as a percentage of radiolabel insulin relative to the administrated dosage, data is shown as mean±SD.
Three mice treatment groups were fasted for 4 hours before given either an oral gavage of insulin (Oral INS), a subcutaneous injection of insulin (SC-INS) or an oral gavage of QD-insulin conjugate (QD-INS) at 2 IU/kg doses.
Series [6] is described as follows: Uptake of radiolabeled insulin-quantum dot conjugate after oral administration. As to conditions: 30 minutes after oral administration, healthy rodents.
Description: as §1

Like-named read-outs stand apart in the source and are kept apart here.

“QD-insulin: Ag2S quantum dot conjugated to insulin by EDC/NHS, then assembled with chitosan with galactose or glucose biopolymer”: in the series on blood glucose [1] (oral gavage equivalent to 20 IU/kg insulin), the “effect on blood glucose after glucose gavage” value is reported as “reduced the blood glucose of the rodent subjects by an approximately equivalent amount”. Further, in the series on blood glucose [1] (orally administered), the “blood glucose lowering effects compared with the injected insulin” value is “equal, if not better”. For the same substance, the “blood glucose lowering, no spike after glucose gavage” value with blood glucose [1] (quantum dot insulin group, oral, 30 minutes prior to glucose gavage (Example 3)) is given as “effective in lowering blood glucose”. Moreover, the “lowering of blood glucose levels in oGTT compared with injected insulin (SC-INS, 2 IU/kg)” value with blood glucose [2] was “as effective”. Besides, in the series on blood glucose [3], the “QD-insulin dose relative to the SC-insulin dose that resulted in similar glucose reductions” value is “about 25 times”. Moreover, the “radioactive label found in the liver” value in series [4] is “Approximately 50%”.
As to insulin, the “blood glucose lowering, no spike after glucose gavage” value in the series on blood glucose [1] (2 IU/kg by intraperitoneal injection 30 minutes prior to glucose gavage (Example 3)) is given as “effective in lowering blood glucose”. Besides, the “effect on blood glucose after glucose gavage” value with blood glucose [1] (intraperitoneal injection equivalent to 0.1 IU/kg insulin) is recorded as “reduced the blood glucose of the rodent subjects by an approximately equivalent amount”. In addition, the “main location of radiolabelled insulin” value was “mainly located in the small bowel” in series [5] (oral gavage 2 IU/kg); “found in the liver and blood” in series [5] (subcutaneous injection 2 IU/kg). In series [5] (after 2 hours, oral gavage 2 IU/kg), the “location of radiolabelled insulin” value is “still located in the bowel”. In addition, the “radiolabelled insulin located in the liver” value in series [5] (after 2 hours, subcutaneous injection 2 IU/kg) is given as “about 50%”. In addition, in series [6], the “radioactive label found in the liver” value was “approximately 1%”.
